Data published in patent publication US20260271927A1, “PESTICIDALLY ACTIVE BICYCLIC COMPOUNDS” (SYNGENTA CROP PROTECTION AG, priority 2023, published 2026).

Key:
Assay type in all cases: in vivo
[1] = test system: Tetranychus urticae (Two-Spotted Spider Mite); experiment: Tetranychus urticae feeding/contact activity, bean leaf discs; conditions: foliar, 192 h
Experimental: Bean leaf discs on agar in 24-well microtiter plates were sprayed with aqueous test solutions prepared from 10′000 ppm DMSO stock solutions. After drying the leaf discs were infested with a mite population of mixed ages. The samples were assessed for mortality on mixed population (mobile stages) 8 days after infestation.

[2] = test system: Diabrotica balteata (Corn Root Worm); experiment: Diabrotica balteata (corn root worm), sprayed maize sprouts, L2 larvae; conditions: 96 h, application rate of 200 ppm, 4 days after infestation, read-out: control in at least one of the two categories (mortality or growth inhibition)
Experimental: Maize sprouts placed onto an agar layer in 24-well microtiter plates were treated with aqueous test solutions prepared from 10′000 ppm DMSO stock solutions by spraying. After drying, the plates were infested with L2 larvae (6 to 10 per well). The samples were assessed for mortality and growth inhibition in comparison to untreated samples 4 days after infestation.

[3] = test system: Myzus persicae (Green Peach Aphid); experiment: Myzus persicae feeding/contact activity, sunflower leaf discs; conditions: foliar, 144 h, application rate of 200 ppm, 6 days after infestation
Experimental: Sunflower leaf discs were placed onto agar in a 24-well microtiter plate and sprayed with aqueous test solutions prepared from 10′000 ppm DMSO stock solutions. After drying, the leaf discs were infested with an aphid population of mixed ages. The samples were assessed for mortality 6 days after infestation.

[4] = test system: Myzus persicae (Green Peach Aphid); experiment: Myzus persicae systemic activity, roots of pea seedlings in test solution; conditions: 144 h, test rate of 24 ppm, 6 days after placing seedlings into test solutions
Experimental: Roots of pea seedlings infested with an aphid population of mixed ages were placed directly into aqueous test solutions prepared from 10′000 DMSO stock solutions. The samples were assessed for mortality 6 days after placing seedlings into test solutions.

[5] = test system: Myzus persicae (Green Peach Aphid); experiment: Myzus persicae intrinsic activity, sucrose solution under Parafilm; conditions: 120 h, application rate of 12.5 ppm, 5 days after infestation, read-out: control (assessed for mortality)
Experimental: Test compounds prepared from 10′000 ppm DMSO stock solutions were applied by pipette into 24-well microtiter plates and mixed with sucrose solution. The plates were closed with a stretched Parafilm. A plastic stencil with 24 holes was placed onto the plate and infested pea seedlings were placed directly on the Parafilm. The infested plate was closed with a gel blotting paper and another plastic stencil and then turned upside down. The samples were assessed for mortality 5 days after infestation.

[6] = test system: Chilo suppressalis (Striped Rice Stemborer); experiment: Chilo suppressalis (striped rice stemborer), artificial diet in 24-well plates, L2 larvae; conditions: 144 h, application rate of 200 ppm, 6 days after infestation, read-out: control in at least one of the three categories (mortality, anti-feedant effect, or growth inhibition)
Experimental: 24-well microtiter plates with artificial diet were treated with aqueous test solutions prepared from 10′000 ppm DMSO stock solutions by pipetting. After drying, the plates were infested with L2 larvae (6-8 per well). The samples were assessed for mortality, anti-feeding effect, and growth inhibition in comparison to untreated samples 6 days after infestation. Control of Chilo suppressalis by a test sample is given when at least one of the categories mortality, anti-feedant effect, and growth inhibition is higher than the untreated sample.

[7] = test system: Myzus persicae (Green Peach Aphid); experiment: Myzus persicae feeding/contact activity, eggplant leaf discs; conditions: foliar, 144 h, application rate of 200 ppm, 6 days after infestation, read-out: growth inhibition
Experimental: Eggplant leaf discs were placed onto agar in a 24-well microtiter plate and sprayed with aqueous test solutions prepared from 10′000 ppm DMSO stock solutions. After drying, the leaf discs were infested with an aphid population of mixed ages. The samples were assessed for mortality 6 days after infestation.

NC(=O)[C@H]1[C@@H]2CCCO[C@@H]21 (relative stereo) [Compound P1, rel-(1R,6R,7R)-2-oxabicyclo[4.1.0]heptane-7-carboxamide]
≥ 80%: mortality at 200 ppm [1] | percent control (mortality or growth inhibition) at 200 ppm [2]

NC(=O)[C@H]1[C@@H]2OCCO[C@@H]21 [Compound P5, (1α,6α,7α)-2,5-dioxabicyclo[4.1.0]heptane-7-carboxamide]
≥ 80%: mortality at 200 ppm [3] | mortality at 24 ppm [4] | mortality at 12.5 ppm [5] | percent control (mortality, anti-feedant effect or growth inhibition) at 200 ppm [6] | percent control (mortality or growth inhibition) at 200 ppm [2] | mortality at 200 ppm [7]
